From patent EP0451791A2, “Long acting liposome compositions containing peptid drugs and method for their preparation” (HOECHST AKTIENGESELLSCHAFT, priority 1990, dated 1991)

System: weiblicher Ratten
Test: Cycle (oestrus) suppression in female rats after s.c. injection, weekly vaginal smear (Beispiel 2)
Format: in vivo
Conditions: HOE 013 solution 60 μg daily, liposomes single dose 3200 μg HOE 013
Description: 2 x 1 ml der Liposomen (entspr. einer Einmalgabe von 3200 µg HOE 013) aus Beispiel 1 werden subkutan weiblichen Ratten von ca. 200 g Körpergewicht injiziert. Als Kontrolle dient eine gleiche Testgruppe von Tieren, die nur Lösungsmittel (Kochsalzlösung) erhält (Placebo) und eine Gruppe von Tieren, die mit täglichen Gaben von LHRH-Antagonist-Lösung (60 µg) (in 5 %iger Mannitlösung) behandelt wird. Die Östrussuppression der Tiere wird durch wöchentlichen Östrusabstrich überprüft. Am Tag 35 wird die Konzentration von HOE 013 im Urin gemessen und die 24 h-Ausscheidung berechnet.
Die Ergebnisse (s. Tabelle 1) zeigen, daß die Tiere der Liposomengruppe im Gegensatz zu den beiden Kontrollgruppen nach 35 Tagen noch deutlich supprimiert sind. Die Exkretionsrate am Tag 35 (4,5 µg) belegt eine signifikante Ausscheidung des Antagonisten im Falle der Liposomenpräparation. Diese Exkretionsrate ist mit der Plasmakonzentration eng korreliert.

Measured: Ratten mit Zuyklussuppression/ Ratten pro Gruppe

Ac-D-Nal-p-Cl-D-Phe-D-Trp-Ser Tyr-D-Ser (α-L-Rha)-Leu-Arg-Pro-Azagly-NH₂ [HOE 013]
0/11: Tag 1 of vaginal cytology | Tag 7 of vaginal cytology | Tag 14 of vaginal cytology | Tag 21 of vaginal cytology | Tag 28 of vaginal cytology | Tag 35 of vaginal cytology
